Read-outs that look alike come from different tables or passages of the source. Where only a bound is given, the exact number is not on record here.

Assay [1] addresses T1, PRMT5 (Homo sapiens, UniProt O14744).
T1 construct: purchased Viva (custom protein)
In words: PRMT5 biochemical IC50 assay with no cofactor. The settings on record: PRMT5, no cofactor. The source says:
Table 1 indicates IC50 values (μM) against PRMT5 for exemplary compounds in the presence of SAM as cofactor, with no cofactor, and with MTA as cofactor, respectively (columns 4-6). […] Ki values can be calculated from the IC50 values as described in the Examples section. As detailed in the Examples section, for the assay performed in the presence of SAM, IC50=Ki×1.5 (Ki=IC50/1.5).

The subject of assay [2] is HAP1 MTAP-deleted cell line. In words: Viability assay, MTAP-deleted cell line. The class given is cell-based. As to conditions: Homo sapiens, read-out: HAP1 MTAP deleted viability. From the text: Table 1 additionally indicates IC50 values in a viability assay for the MTAP-deleted cell line (column 10), indicating the effect of treatment with compound on cell survival.

Assay [3] relates to HAP1 MTAP-deleted cell line. In words: SDMA in-cell western assay, HAP1 MTAP-deleted. It is filed as cell-based. As to conditions: for MTAP intact/deleted ratio: IC50 ratio HAP1 MTAP-intact / HAP1 MTAP-deleted; for IC50: HAP1 MTAP-deleted. A digest of the protocol:
(§1)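 Compounds were tested in HAP1 cells differing only in MTAP status (endogenous expression versus null). Cellular SDMA levels were then measured by in-cell western, giving an IC50 in each background.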

For assay [4], the system named is HAP1 MTAP-intact cell line. As to the kind of experiment: SDMA in-cell western assay, HAP1 MTAP-intact. The settings on record: HAP1 MTAP-intact, read-out: MTAP HAP1 intact IC50. It is filed as cell-based. Put shortly:
as §1

The target of assay [5] is T1, PRMT5. As to the kind of experiment: PRMT5 biochemical IC50 assay with SAM as cofactor. As to conditions: PRMT5, SAM as cofactor; read-out: SAM IC50.
The target in assay [6] is T1, PRMT5. In words: PRMT5 biochemical IC50 assay with MTA as cofactor. As to conditions: PRMT5, MTA as cofactor; read-out: MTA IC50.
[7] abbreviates: HAP1, viability assay, MTAP-deleted cell line.
Setting [8] is: Homo sapiens, HAP1, SDMA in-cell western, read-out: HAP 1 MTAP deleted IC50.
[9] abbreviates: Homo sapiens, HAP1, SDMA in-cell western.
[10] abbreviates: Homo sapiens, HAP1, SDMA in-cell western, read-out: HAP1 MTAP deleted IC50.
The mark [11] stands for this setting: HAP1, viability assay, HAP1 MTAP-deleted.
Where [12] appears, read: HAP1, viability IC50, MTAP-deleted cell line.

T1 sequence (O14744 whole entry): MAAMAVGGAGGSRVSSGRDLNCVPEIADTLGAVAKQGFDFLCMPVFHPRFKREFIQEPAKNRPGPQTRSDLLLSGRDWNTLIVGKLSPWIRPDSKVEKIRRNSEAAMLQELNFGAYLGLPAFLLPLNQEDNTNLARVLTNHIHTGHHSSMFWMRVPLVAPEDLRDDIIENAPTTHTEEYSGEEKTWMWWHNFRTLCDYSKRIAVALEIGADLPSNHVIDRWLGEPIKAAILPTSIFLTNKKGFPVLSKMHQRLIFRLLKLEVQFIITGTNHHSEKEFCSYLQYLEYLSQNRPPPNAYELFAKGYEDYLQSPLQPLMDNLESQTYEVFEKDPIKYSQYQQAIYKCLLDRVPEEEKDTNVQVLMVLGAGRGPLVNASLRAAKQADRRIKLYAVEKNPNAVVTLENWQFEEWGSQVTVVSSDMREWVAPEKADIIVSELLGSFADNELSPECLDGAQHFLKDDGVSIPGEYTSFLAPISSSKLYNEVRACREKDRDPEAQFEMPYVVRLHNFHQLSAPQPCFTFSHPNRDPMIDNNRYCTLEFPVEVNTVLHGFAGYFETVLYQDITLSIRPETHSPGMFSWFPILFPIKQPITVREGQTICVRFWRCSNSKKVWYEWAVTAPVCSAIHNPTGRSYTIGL
T1 sequence (Q9BQA1 whole entry partner): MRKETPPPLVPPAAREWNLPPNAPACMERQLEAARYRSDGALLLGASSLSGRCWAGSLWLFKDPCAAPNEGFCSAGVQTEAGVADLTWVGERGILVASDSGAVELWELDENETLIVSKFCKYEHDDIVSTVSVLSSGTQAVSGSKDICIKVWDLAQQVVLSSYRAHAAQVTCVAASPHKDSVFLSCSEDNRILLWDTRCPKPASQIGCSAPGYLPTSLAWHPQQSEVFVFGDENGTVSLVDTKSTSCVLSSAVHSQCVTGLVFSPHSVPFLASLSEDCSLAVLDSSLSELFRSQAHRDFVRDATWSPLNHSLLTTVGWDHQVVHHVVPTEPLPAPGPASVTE

For the molecule `COc1ncc(NC(=O)C(=O)N2CCCCC2C2CCCCC2)cc1C(N)=O` (single isomer, unassigned) [Compound 347, 5-(2-(2-cyclohexylpiperidin-1-yl)-2-oxoacetamido)-2-methoxynicotinamide], the IC50 at PRMT5 [1] (read-out: No Cofactor/rel IC50) is 50 to 500 nM; in assay [2] (setting [7]), 1 to 10 µM; in assay [3] (SDMA in-cell western, read-out: HAP1 MTAP deleted IC50), 100 to 1000 nM; in assay [4] (SDMA in-cell western), more than 1000 nM; at PRMT5 [5], 50 to 500 nM; on PRMT5 [6], less than 50 nM. For the same molecule, the MTAP intact/deleted ratio entry in assay [3] (SDMA in-cell western) was “A (an IC50 ratio greater than or equal to 10 fold)”.
For the molecule `COc1ncc(NC(=O)C(=O)N2C[C@H](C)CC[C@H]2c2ccc(C)cn2)cc1C(N)=O` (racemic) [Compound 932, 2-Methoxy-5-[[2-[(2R,5S)-5-methyl-2-(5-methyl-2-pyridyl)-1-piperidyl]-2-oxo-acetyl]amino]pyridine-3-carboxamide], the IC50 at PRMT5 [1] (read-out: No Cofactor/rel IC50) was 50 to 500 nM; in assay [2] (setting [7]), 1 to 10 µM; in assay [3] (setting [8]), less than 100 nM; in assay [4] (setting [9]), more than 1000 nM; at PRMT5 [5] it was 50 to 500 nM; at PRMT5 [6] it was 50 to 500 nM. The MTAP intact/deleted ratio entry in assay [3] (SDMA in-cell western) was “A (an IC50 ratio greater than or equal to 10 fold)”.
As to `Cc1cc([C@H]2CC[C@H](C)CN2C(=O)C(=O)Nc2cncc(C(N)=O)c2)ccc1F` (single isomer, unassigned) [Compound 293], the IC50 on PRMT5 [1] (read-out: No Cofactor/rel IC50) was 50 to 500 nM; in assay [2] (setting [7]), 1 to 10 µM; in assay [3] (setting [10]), less than 100 nM; in assay [4] (setting [9]), more than 1000 nM; on PRMT5 [5] it was less than 50 nM; on PRMT5 [6], less than 50 nM. In addition, in assay [3] (SDMA in-cell western), the MTAP intact/deleted ratio result was “A (an IC50 ratio greater than or equal to 10 fold)”.
For `Cc1cc(NC(=O)C(=O)N2CCCC[C@H]2c2ccc3[nH]ncc3c2)cnc1N` (single isomer, unassigned) [Compound 518], the IC50 on PRMT5 [1] (read-out: No Cofactor/rel IC50) is 50 to 500 nM; in assay [2] (setting [7]) it was less than 1 µM; in assay [3] (setting [10]), less than 100 nM; in assay [4] (setting [9]), more than 1000 nM; at PRMT5 [5], 50 to 500 nM; on PRMT5 [6], less than 50 nM. The MTAP intact/deleted ratio entry in assay [3] (SDMA in-cell western) is “A (an IC50 ratio greater than or equal to 10 fold)”.
In the case of `CCc1cc(NC(=O)C(=O)N2C[C@H](C)CC[C@H]2c2ccc3[nH]cnc3c2)cnc1N` (single isomer, unassigned) [Compound 771], the IC50 was more than 500 nM at PRMT5 [1] (read-out: No Cofactor/rel IC50); more than 10 µM in assay [2] (setting [11]); more than 1000 nM in assay [3] (setting [10]); more than 1000 nM in assay [4] (setting [9]); more than 500 nM at PRMT5 [5]; more than 500 nM at PRMT5 [6]. Further, the MTAP intact/deleted ratio entry in assay [3] (SDMA in-cell western) is on record as “C (an IC50 ratio of less than 3 fold)”.
Consider `C[C@@H]1CC[C@@H](c2cnc3[nH]ncc3c2)N(C(=O)C(=O)Nc2cncc(C(N)=O)c2)C1` (single isomer, unassigned) [Compound 550], for which the IC50 on PRMT5 [1] (read-out: No Cofactor/rel IC50) was more than 500 nM; in assay [2] (setting [12]), more than 10 µM; in assay [3] (setting [8]), more than 1000 nM; in assay [4] (setting [9]), more than 1000 nM; at PRMT5 [5], more than 500 nM; on PRMT5 [6], more than 500 nM. In addition, the MTAP intact/deleted ratio result in assay [3] (SDMA in-cell western) is “C (an IC50 ratio of less than 3 fold)”.
As to `C[C@@H]1CC[C@@H](c2ccccc2C#N)N(C(=O)C(=O)Nc2cncc(C(N)=O)c2)C1` (racemic) [Compound 664, 5-[[2-[(2R,5S)-2-(2-Cyanophenyl)-5-methyl-1-piperidyl]-2-oxo-acetyl]amino]pyridine-3-carboxamide], the IC50 on PRMT5 [1] (read-out: No Cofactor/rel IC50) is more than 500 nM; in assay [2] (setting [12]), more than 10 µM; in assay [3] (setting [8]) it was more than 1000 nM; in assay [4] (setting [9]), more than 1000 nM; at PRMT5 [5] it was more than 500 nM; on PRMT5 [6] it was 50 to 500 nM. In addition, the MTAP intact/deleted ratio entry in assay [3] (SDMA in-cell western) is on record as “B (an IC50 ratio greater than or equal to 3 fold but lower than 10 fold)”.
Regarding `Cc1cc(NC(=O)C(=O)N2C[C@@H](C)CC[C@@H]2c2ccc(F)c(Cl)c2)cnc1N` (single isomer, unassigned) [Compound 606], the IC50 at PRMT5 [1] (read-out: No Cofactor/rel IC50) is more than 500 nM; in assay [2] (setting [12]) it was more than 10 µM; in assay [3] (setting [8]), more than 1000 nM; in assay [4] (setting [9]), more than 1000 nM; on PRMT5 [5], more than 500 nM; on PRMT5 [6], more than 500 nM. Also, in assay [3] (SDMA in-cell western), the MTAP intact/deleted ratio result is “B (an IC50 ratio greater than or equal to 3 fold but lower than 10 fold)”.
Turning to `COc1ncc(NC(=O)C(=O)N2C[C@H](C)CC[C@H]2c2ccc(NS(C)(=O)=O)cc2)cc1C(N)=O` (single isomer, unassigned) [Compound 858], the IC50 on PRMT5 [1] (read-out: No Cofactor/rel IC50) is less than 50 nM; in assay [2] (setting [11]), 1 to 10 µM; in assay [3] (setting [10]), less than 100 nM; in assay [4] (setting [9]), more than 1000 nM; on PRMT5 [5], 50 to 500 nM; at PRMT5 [6], less than 50 nM. Also, the MTAP intact/deleted ratio entry in assay [3] (SDMA in-cell western) is recorded as “A (an IC50 ratio greater than or equal to 10 fold)”.
`C[C@H]1CN(C(=O)C(=O)Nc2cncc(C(N)=O)c2)[C@H](c2ccc(F)c(F)c2)CC1(F)F` (single isomer, unassigned) [Compound 683]: the IC50 was 50 to 500 nM at PRMT5 [1] (read-out: No Cofactor/rel IC50); 1 to 10 µM in assay [2] (setting [12]); 100 to 1000 nM in assay [3] (setting [8]); more than 1000 nM in assay [4] (setting [9]); 50 to 500 nM at PRMT5 [5]; less than 50 nM at PRMT5 [6]. The MTAP intact/deleted ratio result in assay [3] (SDMA in-cell western) is “A (an IC50 ratio greater than or equal to 10 fold)”.
Regarding `Cc1cc(NC(=O)C(=O)N2C[C@@H](C)CC[C@@H]2c2ccc(NS(C)(=O)=O)cc2)cnc1C` (single isomer, unassigned) [Compound 621], the IC50 on PRMT5 [1] (read-out: No Cofactor/rel IC50) is less than 50 nM; in assay [2] (setting [12]), 1 to 10 µM; in assay [3] (setting [8]), less than 100 nM; in assay [4] (setting [9]), 100 to 1000 nM; at PRMT5 [5], 50 to 500 nM; at PRMT5 [6], less than 50 nM. The MTAP intact/deleted ratio result in assay [3] (SDMA in-cell western) was “A (an IC50 ratio greater than or equal to 10 fold)”.
Take `COc1ncc(NC(=O)C(=O)N2C[C@H](C)CC[C@H]2c2cncs2)cc1C(N)=O` (single isomer, unassigned) [Compound 514]: the IC50 at PRMT5 [1] (read-out: No Cofactor/rel IC50) is more than 500 nM; in assay [2] (setting [7]), more than 10 µM; in assay [3] (setting [10]), more than 1000 nM; in assay [4] (setting [9]), more than 1000 nM; at PRMT5 [5], more than 500 nM; at PRMT5 [6], more than 500 nM. In addition, the MTAP intact/deleted ratio entry in assay [3] (SDMA in-cell western) is listed as “C (an IC50 ratio of less than 3 fold)”.
`CNc1ccc([C@H]2CC[C@H](C)CN2C(=O)C(=O)Nc2cnc(OC)c(C(N)=O)c2)cn1` (single isomer, unassigned) [Compound 447]: the IC50 at PRMT5 [1] (read-out: No Cofactor/rel IC50) is less than 50 nM; in assay [2] (setting [7]), less than 1 µM; in assay [3] (setting [10]), less than 100 nM; in assay [4] (setting [9]), more than 1000 nM; on PRMT5 [5], 50 to 500 nM; on PRMT5 [6], less than 50 nM. In assay [3] (SDMA in-cell western), the MTAP intact/deleted ratio result is “A (an IC50 ratio greater than or equal to 10 fold)”.
With `Cc1cc(NC(=O)C(=O)N2C[C@H]3CC[C@H](C3)[C@H]2c2cccs2)cnc1N` (single isomer, unassigned) [Compound 134], the IC50 at PRMT5 [1] (read-out: No Cofactor/ rel IC50) was more than 500 nM; in assay [2] (setting [7]), more than 10 µM; in assay [3] (setting [8]) it was more than 1000 nM; in assay [4] (setting [9]), more than 1000 nM; on PRMT5 [5], more than 500 nM; on PRMT5 [6], more than 500 nM. Also, in assay [3] (SDMA in-cell western), the “MTAP intact/deleted ratio” value is listed as “C (an IC50 ratio of less than 3 fold)”.
On to `C[C@@H]1CC[C@@H](c2ccc3sccc3c2)N(C(=O)C(=O)Nc2cncc(C(N)=O)c2)C1` (racemic) [Compound 409, rac-5-[[2-[(2S,5R)-2-(benzothiophen-5-yl)-5-methyl-1-piperidyl]-2-oxo-acetyl]amino]pyridine-3-carboxamide], for which the IC50 is 50 to 500 nM on PRMT5 [1] (read-out: No Cofactor/rel IC50); 1 to 10 µM in assay [2] (setting [7]); less than 100 nM in assay [3] (setting [10]); more than 1000 nM in assay [4] (setting [9]); 50 to 500 nM on PRMT5 [5]; less than 50 nM on PRMT5 [6]. The MTAP intact/deleted ratio entry in assay [3] (SDMA in-cell western) is recorded as “A (an IC50 ratio greater than or equal to 10 fold)”.
As to `CNS(=O)(=O)c1ccc([C@@H]2CC[C@@H](C)CN2C(=O)C(=O)Nc2cnc(N)c(C)c2)cc1` (racemic) [Compound 668, N-(6-amino-5-methyl-3-pyridyl)-2-[(2S,5R)-5-methyl-2-[4-(methylsulfamoyl)phenyl]-1-piperidyl]-2-oxo-acetamide], the IC50 was 50 to 500 nM at PRMT5 [1] (read-out: No Cofactor/rel IC50); 1 to 10 µM in assay [2] (setting [12]); 100 to 1000 nM in assay [3] (setting [8]); 100 to 1000 nM in assay [4] (setting [9]); 50 to 500 nM on PRMT5 [5]; less than 50 nM at PRMT5 [6]. Also, in assay [3] (SDMA in-cell western), the MTAP intact/deleted ratio entry is listed as “B (an IC50 ratio greater than or equal to 3 fold but lower than 10 fold)”.

The values above are taken from patent publication US11999727B2 (Tango Therapeutics, Inc., priority 2020, dated 2024).
